Test results: US20250195521A1 (Revolution Medicines, Inc., priority 2020, published 2025)
Like-named read-outs stand apart in the source and are kept apart here.

Legend:
KRAS WT = KRAS WT (Homo sapiens (Human), UniProt P01116+P62937); assay: Ras-Raf disruption/FRET/MOA assay (BRAF RBD, Cyclophilin A); format: biochemical; details: read-out: KRAS WT FRET data IC50
Summary of the method: (§1)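 TR-FRET read after 1.5 h with 10 nM anti-His Eu-W1024 and 50 nM anti-GST APC, following 3 h at 25 °C of GMPPNP-loaded His6-Ras (12.5 nM), GST-BRAF RBD (50 nM) and Cyclophilin A (25 μM) with compound from 30 μM final, 10 points, 3-fold. IC50 reported; pH 7.3 HEPES, 100 mM NaCl.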

KRAS G13C = KRAS G13C (Homo sapiens (Human), UniProt P01116+P62937, G13C); assay: as above; format: biochemical; details: read-out: KRAS G13C FRET IC50
Summary of the method: as §1

KRAS G13D = KRAS G13D (Homo sapiens (Human), UniProt P01116+P62937, G13D); assay: as above; format: biochemical; details: read-out: KRAS G13D FRET data IC50
Summary of the method: as §1

KRAS G12C = KRAS G12C (Homo sapiens (Human), UniProt P01116+P62937, G12C); assay: as above; format: biochemical; details: read-out: KRAS G12C FRET IC50
Summary of the method: as §1

NRAS G12C = NRAS G12C (Homo sapiens (Human), UniProt P01111+P62937, G12C); assay: as above; format: biochemical; details: read-out: NRAS G12C FRET data IC50
Sequence of NRAS G12C (P01111 whole entry G12C): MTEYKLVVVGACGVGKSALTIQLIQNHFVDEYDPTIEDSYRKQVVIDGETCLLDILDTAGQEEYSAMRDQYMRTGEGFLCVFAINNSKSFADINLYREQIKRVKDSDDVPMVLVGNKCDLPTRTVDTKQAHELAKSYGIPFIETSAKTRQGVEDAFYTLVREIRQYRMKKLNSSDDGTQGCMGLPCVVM
Sequence of NRAS G12C (P62937 whole entry): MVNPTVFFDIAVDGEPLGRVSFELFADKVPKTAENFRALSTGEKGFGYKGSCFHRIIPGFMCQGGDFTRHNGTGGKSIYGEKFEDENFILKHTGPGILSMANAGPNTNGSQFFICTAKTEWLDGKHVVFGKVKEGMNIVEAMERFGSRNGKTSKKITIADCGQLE
Summary of the method: (§2)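 Ras-GMPPNP (12.5 nM), BRAF RBD (50 nM) and 25 μM Cyclophilin A were incubated with compound for 3 h at 25° C, then detected 1.5 h with anti-His Eu and anti-GST APC; IC50 values follow from the reduced TR-FRET ratio.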

KRAS G12S = KRAS G12S (Homo sapiens (Human), UniProt P01116+P62937, G12S); assay: as above; format: biochemical; details: read-out: KRAS G12S FRET IC50
Summary of the method: as §1

KRAS G12V = KRAS G12V (Homo sapiens (Human), UniProt P01116+P62937, G12V); assay: as above; format: biochemical; details: read-out: KRAS G12V FRET IC50
Summary of the method: as §1

KRAS G12D = KRAS G12D (Homo sapiens (Human), UniProt P01116+P62937, G12D); assay: as above; format: biochemical; details: read-out: KRAS G12D FRET IC50
Summary of the method: as §1

[1] = test system: NCI-H358 cells (K-Ras G12C); assay: CellTiter-Glo cell viability, NCI-H358; format: cell-based, human; details: K-Ras G12C, 5-day treatment, read-out: H358 Cell Viability IC50
Summary of the method: (§3)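 Viability is read as luminescence after five days of compound exposure, with plates first equilibrated to room temperature for roughly 30 minutes. Each signal is expressed as a percentage of the mean DMSO control, and curves are fitted by four-parameter logistic regression.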

[2] = test system: Capan-1 cells (K-Ras G12V); assay: CellTiter-Glo cell viability, Capan-1; format: cell-based, human; details: K-Ras G12V, 5-day treatment, read-out: Capan-1 Cell Viability IC50
Summary of the method: as §3

[3] = molecular target: K-Ras G12C(GMP-PNP) binding to BRAF RBD (Homo sapiens (Human), UniProt P01116+P62937, G12C); assay: Disruption of BRAF RBD interaction with K-Ras (FRET / MOA assay), K-Ras G12C; format: biochemical; details: read-out: KRAS G12C FRET IC50
Summary of the method: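 Cpd 10-pt 3-fold dilution, top 30 μM final; Ras/CypA/BRAF RBD mix 3 h, 25° C. Add anti-His Eu-W1024 10 nM + anti-GST APC 50 nM final, 1.5 h. Readout TR-FRET ratio decrease vs DMSO → IC50.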

NCI-H358 (K-Ras G12C) = assay: CellTiter-Glo cell viability assay, NCI-H358; format: cell-based, human; details: 5-day treatment, read-out: H358 Cell Viability assay data (K-Ras G12C, IC50)
Summary of the method: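 Viability is measured as ATP-dependent luminescence (CellTiter-Glo) five days into compound treatment. Responses are normalized to vehicle (DMSO) wells and fitted by four-parameter logistic regression.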

NRAS WT = NRAS WT (Homo sapiens (Human), UniProt P01111+P62937); assay: Ras-Raf disruption/FRET/MOA assay (BRAF RBD, Cyclophilin A); format: biochemical
Sequence of NRAS WT (P01111 whole entry): as the sequence (P01111 whole entry G12C) above, with C12G counted along it
Sequence of NRAS WT (P62937 whole entry): as the sequence (P62937 whole entry) above
Summary of the method: as §2

[4] = test system: K-Ras G12C (NCI-H358 cells); assay: Potency assay: pERK in NCI-H358 cells; format: cell-based, human; details: NCI-H358 cells, 4 hours, read-out: pERK EC50 (H358 KRAS G12C)
Summary of the method: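 Cells plated the day before were exposed for 4 h at 37° C, 5% CO2 to a 10-point, 3-fold DMSO dilution series (10 mM top stock), in duplicate. Phospho-ERK was read by AlphaLISA SureFire Ultra or by In-Cell Western with DRAQ5 DNA stain, and IC50 came from a 4-parameter sigmoidal fit.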

KRAS Q61H = KRAS Q61H (Homo sapiens (Human), UniProt P01116+P62937, Q61H); assay: Ras-Raf disruption/FRET/MOA assay (BRAF RBD, Cyclophilin A); format: biochemical
Summary of the method: as §1

IC50 (KRAS WT) [nM] | IC50 (KRAS G13C) [nM] | IC50 (KRAS G13D) [nM] | IC50 (KRAS G12C) [nM] | IC50 (NRAS G12C) [nM] | IC50 (KRAS G12S) [nM] | IC50 (KRAS G12V) [nM] | IC50 (KRAS G12D) [nM] | IC50 ([1]; Homo sapiens, NCI-H358, 120 h) [nM] | IC50 [3] [nM] | IC50 (NCI-H358 (K-Ras G12C); Homo sapiens, NCI-H358, 120 h) [nM] | IC50 (NRAS WT) [nM] | EC50 ([4]; Homo sapiens) [nM] | Compound | IC50 ([2]; Homo sapiens, CAPAN-1, 120 h) [nM] | IC50 (KRAS Q61H) [nM] | IC50 [1] [nM] | IC50 [2] [nM] | IC50 (NCI-H358 (K-Ras G12C)) [nM] | EC50 [4] [nM]
100 to 1000 | 10 to 100 | 100 to 1000 | 10 to 100 | 10 to 100 | 100 to 1000 | 100 to 1000 | 100 to 1000 | 10 to 100 | 100 to 1000 | 100 to 1000 |  |  | CCn1c(-c2cccnc2[C@H](C)OC)c2c3cc(ccc31)-c1cc(O)cc(c1)C[C@H](NC(=O)[C@H](C(C)C)N(C)C(=O)N1CC(OC)C1)C(=O)N1CCC[C@H](N1)C(=O)OCC(C)(C)C2 [Compound A364] | 10 to 100 |  |  |  |  | 
10 to 100 | 10 to 100 | 10 to 100 | 10 to 100 | 10 to 100 | 10 to 100 | 10 to 100 | 10 to 100 | 10 to 100 |  |  | 10 to 100 | < 5000 | CCn1c(-c2cccnc2[C@H](C)OC)c2c3cc(ccc31)-c1cc(O)cc(c1)C[C@H](NC(=O)[C@H](C(C)C)N(C)C(=O)[C@@H]1OCC[C@@H]1c1ccccc1)C(=O)N1CCC[C@H](N1)C(=O)OCC(C)(C)C2 [Compound A415] | 10 to 100 |  |  |  |  | 
100 to 1000 | 10 to 100 | 100 to 1000 | 10 to 100 | 100 to 1000 | 100 to 1000 | 100 to 1000 | 100 to 1000 | 100 to 1000 | 100 to 1000 | 10 to 100 |  |  | CCn1c(-c2cccnc2[C@H](C)OC)c2c3cc(ccc31)-c1cc(O)cc(c1)C[C@H](NC(=O)[C@H](C(C)C)N(C)C(=O)[C@H]1OCC[C@H]1N)C(=O)N1CCC[C@H](N1)C(=O)OCC(C)(C)C2 [Compound A420] | 100 to 1000 |  |  |  |  | 
100 to 1000 | 100 to 1000 | 100 to 1000 | 10 to 100 | 10 to 100 | 100 to 1000 | 100 to 1000 | 100 to 1000 |  |  |  | 10 to 100 |  | CCn1c(-c2cc(N3CCN(C)CC3)cnc2[C@H](C)OC)c2c3cc(ccc31)-c1csc(n1)C[C@H](NC(=O)[C@H](C(C)C)N(C)C(=O)[C@@H]1OCC[C@@H]1c1ccncc1)C(=O)N1CCC[C@H](N1)C(=O)OCC(C)(C)C2 [Compound A450] |  | 10 to 100 |  |  |  | 

Compound | IC50 (KRAS WT) [nM] | IC50 (KRAS G13C) [nM] | IC50 (KRAS G13D) [nM] | IC50 (KRAS G12C) [nM] | IC50 (NRAS G12C) [nM] | IC50 (KRAS G12S) [nM] | IC50 (KRAS G12V) [nM] | IC50 (KRAS G12D) [nM] | IC50 ([1]; Homo sapiens, NCI-H358, 120 h) [nM] | IC50 [3] [nM] | IC50 (NCI-H358 (K-Ras G12C); Homo sapiens, NCI-H358, 120 h) [nM] | IC50 (NRAS WT) [nM] | EC50 ([4]; Homo sapiens) [nM] | IC50 ([2]; Homo sapiens, CAPAN-1, 120 h) [nM] | IC50 (KRAS Q61H) [nM] | IC50 [1] [nM] | IC50 [2] [nM] | IC50 (NCI-H358 (K-Ras G12C)) [nM] | EC50 [4] [nM]
CCO[C@@H]1c2nc(cs2)-c2ccc3c(c2)c(c(-c2cccnc2[C@H](C)OC)n3CC)CC(C)(C)COC(=O)[C@@H]2CCCN(N2)C(=O)[C@H]1NC(=O)[C@H]1[C@H](C)[C@@H]1c1cn(C)cn1 [Compound A507, (1R,2S,3R)—N-((6^3S,3S,4S,Z)-3-ethoxy-1^1-ethyl-1^2-(2-((S)-1-methoxyethyl)pyridin-3-yl)-10, 10-dimethyl-5,7-dioxo-6^1,6^2,6^3,6^4,6^5,6^6-hexahydro-1^1H-8-oxa-2 (4,2)-thiazola-1 (5,3)-indola-6 (1,3)-pyridazinacycloundecaphane-4-yl)-2-methyl-3-(1-methyl-1H-imidazol-4-yl) cyclopropane-1-carboxamide] |  | 10 to 100 |  | 10 to 100 |  | 10 to 100 | 10 to 100 | 10 to 100 |  | 100 to 1000 |  |  |  |  | 10 to 100 | 10 to 100 | 100 to 1000 | 100 to 1000 | 
(2S)—N-[(8S,14S)-22-ethyl-4-hydroxy-18, 18-dimethyl-21-[6-(4-methylpiperazin-1-yl) pyridin-3-yl]-9,15-dioxo-16-oxa-10,22,28-triazapentacyclo [18.5.2.1^2,6.1^10,14.0^23,27]nonacosa-1 (26), 2,4,6 (29), 20,23 (27),24-heptaen-8-yl]-3-methyl-2-{N-methyl-1-[(3S)-1-(prop-2-enoyl) pyrrolidin-3-yl]formamido}butanamide [Compound A89] |  | 10 to 100 |  | 100 to 1000 |  | 100 to 1000 | 100 to 1000 | 100 to 1000 |  |  |  |  |  |  | 10 to 100 |  | 1000 to 10000 | 10 to 100 | < 5000
